Data: US20040259926A1, “3-Aryloxy and 3-heteroaryloxy substituted benzo[b]thiophenes as therapeutic agents” (priority 2003, published 2004)
pIC50: −log10 of the molar value.

Each compound was assayed against T1, PI3Kγ (recombinant p101/p110γ protein) (Homo sapiens, UniProt P48736) (assay: PI3Kγ In Vitro Kinase Assay). Details: purified recombinant p101/p110γ with G protein β1/γ2 subunits; 20 μM ATP, [γ-32P-ATP]; 25 μM PIP2 lipid micelles; 20 minutes at room temperature.
T1 construct: HA; made in house; host or cells: Spodoptera frugiperda (Sf9) cells, baculovirus co-infection
Format: biochemical
Procedure: Spodtera frugiperda cells, grown in ESF921 media, were coinfected with baculovirus expressing a glu-tagged […] and baculovirus expressing an HA-tagged p110γ, at a 3:1 ratio of p101 baculovirus to p110γ baculovirus. Sf9 cells were grown to 1×10^7 total cells/mL in 10 L bioreactors and harvested 48-72 hours post infection. Samples of infected cells were then tested for expression of p101/p110γ PI3 kinase by immunoprecipitation and Western Blot analysis methods (see below).
To purify PI3Kγ, 4 volumes of room temperature hypotonic lysis buffer (1 mM MgCl2, 1 mM DTT, 5 mM EGTA, 1 mM Pefabloc, 0.5 μM aprotinin, 5 μM leupeptin, 2 μM pepstatin, 5 μM E64, pH 8) per gram of cell paste, was poured onto frozen cell pellets with stirring, then lysed in a nitrogen “bomb” at 400 psi (599 HC T316, Parr Instrument Co, Moline, Ill.). NaCl was added to 150 mM, and sodium cholate was added to 1% and mixed for another 45 minutes. The lysates were clarified by centrifugation for 25 minutes at 14,000 rpm. The lysates were then loaded over anti-glu-linked Protein-G Sepaharose beads (Covance Research Products, Richmond, Calif.) using 20 mL resin/50 g cell paste. The column was washed with 15 volumes of wash buffer (1 mM DTT, 0.2 mM EGTA, 1 mM Pefabloc, 0.5 μM aprotinin, 5 μM leupeptin, 2 μM pepstatin, 5 μM E64, 150 mM NaCl, 1% sodium cholate, pH 8). PI3Kγ was eluted with 6 column volumes of wash buffer that contain 100 μg/mL of a peptide that competes for binding of the glu tag. The column fractions with the eluted protein (determined by taking OD280 readings) were collected and dialyzed in 0.2 mM EGTA, 1 mM DTT, 1 mM Pefabloc, 5 μM leupeptin, 0.5% sodium cholate, 150 mM NaCl, and 50% glycerol, pH 8. The fractions were stored at −80° C. until further use.
Spodtera frugiperda cells were coinfected with baculovirus expressing a glu-tagged G protein β1 and baculovirus expressing a G protein β2 at a 1:1 ratio of glu-tagged G protein β1 baculovirus to G protein β2 baculovirus. Sf9 cells are grown in 10 L bioreactors and harvested 48-72 hours post infection. Samples of infected cells were tested for G protein β1/β2 expression by Western Blot analysis, as described below. Cell lysates were homogenized and loaded onto a column of glu-tagged beads as in Biological Example 1 and competed off the column with a glu peptide and processed as described in Biological Example 1.
The inhibitory properties of the compounds in Table 1 were assayed in an in vitro PI3K assay. In a 96-well polypropylene plate, each well was spotted with 2 μL of 50 times the desired final concentration of compound in DMSO. Purified recombinant p101/p110γ protein (0.03 μg; ˜2.7 nM) and G protein β1/γ2 subunits (0.09 μg; ˜57.7 nM) for each reaction was combined in the assay buffer (30 mM HEPES, 100 mM NaCl, 1 mM EGTA, and 1 mM DTT). ATP and [γ-^32P-ATP] (0.09 μCi) were added to this mixture so that the final ATP concentration in the reaction was 20 μM. Lipid micelles were formed by sonicating phosphatidylinositol-4,5-diphosphate (PIP2), phosphatidylethanolamine (PE), and Na-cholate in the assay buffer for 10 minutes, adding MgCl2 and incubating on ice for 20 minutes, for final concentrations of 25 μM PIP2, 300 μM PE, 0.02% Na-cholate, and 10 mM MgCl2 in the reaction. The reactions were started by adding equal volumes lipid and enzyme mixture in a total volume of 50 μL, allowed to run for 20 minutes at room temperature, and stopped with 100 μL 75 mM H3PO4. The lipid product was transferred to a glass fiber filter plate and washed with 75 mM H3PO4 several times. The presence of radioactive lipid product (PIP3) was measured by adding Wallac Optiphase mix to each well and counting in a Wallac 1450 Trilux plate reader (PerkinElmer Life Sciences Inc., Boston, Mass. 02118). The IC50 for each compound tested is reported in μM in Table 1: […]

T1 sequence (P48736 whole entry, species assumed): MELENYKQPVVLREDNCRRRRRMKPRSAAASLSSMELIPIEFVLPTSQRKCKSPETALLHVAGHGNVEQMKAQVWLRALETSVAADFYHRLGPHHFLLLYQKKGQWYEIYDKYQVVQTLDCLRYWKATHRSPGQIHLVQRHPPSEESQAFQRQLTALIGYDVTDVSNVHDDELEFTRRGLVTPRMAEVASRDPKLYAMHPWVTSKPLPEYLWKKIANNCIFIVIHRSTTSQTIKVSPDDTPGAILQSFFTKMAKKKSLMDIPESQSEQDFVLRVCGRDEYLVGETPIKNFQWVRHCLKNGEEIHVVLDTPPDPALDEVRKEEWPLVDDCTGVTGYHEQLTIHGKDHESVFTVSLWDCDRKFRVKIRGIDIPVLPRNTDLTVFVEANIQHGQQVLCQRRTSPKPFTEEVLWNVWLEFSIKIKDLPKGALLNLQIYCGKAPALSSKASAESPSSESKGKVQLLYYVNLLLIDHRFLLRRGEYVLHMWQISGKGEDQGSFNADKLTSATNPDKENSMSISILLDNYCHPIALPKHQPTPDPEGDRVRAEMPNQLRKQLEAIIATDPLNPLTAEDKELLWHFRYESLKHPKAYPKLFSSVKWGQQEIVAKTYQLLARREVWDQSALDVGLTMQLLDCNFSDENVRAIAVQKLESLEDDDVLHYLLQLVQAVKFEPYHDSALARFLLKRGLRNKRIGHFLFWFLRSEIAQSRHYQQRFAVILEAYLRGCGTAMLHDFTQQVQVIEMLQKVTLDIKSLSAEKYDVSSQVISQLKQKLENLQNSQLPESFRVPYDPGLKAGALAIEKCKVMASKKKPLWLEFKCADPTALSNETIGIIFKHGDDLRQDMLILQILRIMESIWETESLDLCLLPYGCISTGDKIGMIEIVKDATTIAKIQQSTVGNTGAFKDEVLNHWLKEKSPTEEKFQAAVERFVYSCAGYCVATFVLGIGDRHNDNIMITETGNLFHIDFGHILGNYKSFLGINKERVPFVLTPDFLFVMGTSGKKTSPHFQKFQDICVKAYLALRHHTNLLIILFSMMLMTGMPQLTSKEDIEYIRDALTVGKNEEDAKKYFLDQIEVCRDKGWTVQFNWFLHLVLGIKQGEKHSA
T1 sequence (Q8WYR1 whole entry partner, species assumed): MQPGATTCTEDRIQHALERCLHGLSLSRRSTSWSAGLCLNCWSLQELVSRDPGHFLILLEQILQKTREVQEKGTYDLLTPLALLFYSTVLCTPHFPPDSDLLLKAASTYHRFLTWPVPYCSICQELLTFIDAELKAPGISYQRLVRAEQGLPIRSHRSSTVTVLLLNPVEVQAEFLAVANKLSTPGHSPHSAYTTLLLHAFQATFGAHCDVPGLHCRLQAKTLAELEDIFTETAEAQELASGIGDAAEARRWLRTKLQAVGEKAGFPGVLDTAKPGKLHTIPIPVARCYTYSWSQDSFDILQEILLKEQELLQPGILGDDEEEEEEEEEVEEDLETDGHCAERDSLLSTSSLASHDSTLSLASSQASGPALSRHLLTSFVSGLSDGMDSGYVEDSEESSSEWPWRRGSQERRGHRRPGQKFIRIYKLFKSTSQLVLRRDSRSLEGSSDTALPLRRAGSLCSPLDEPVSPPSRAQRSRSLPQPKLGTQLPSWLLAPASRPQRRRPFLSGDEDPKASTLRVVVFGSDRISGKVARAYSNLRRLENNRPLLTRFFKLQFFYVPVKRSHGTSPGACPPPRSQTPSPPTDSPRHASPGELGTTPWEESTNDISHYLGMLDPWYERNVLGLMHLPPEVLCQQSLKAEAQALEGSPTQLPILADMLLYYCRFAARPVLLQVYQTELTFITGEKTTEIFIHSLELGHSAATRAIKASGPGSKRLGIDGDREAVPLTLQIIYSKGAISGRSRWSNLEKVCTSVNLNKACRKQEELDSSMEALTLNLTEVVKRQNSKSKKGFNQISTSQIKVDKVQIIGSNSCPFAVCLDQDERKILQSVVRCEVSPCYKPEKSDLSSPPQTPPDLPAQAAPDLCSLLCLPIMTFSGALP

Row | pIC50 | SMILES
1 | 7.74 | COc1cc2c(Oc3ccc(OC4CCCCC4)cc3)c(C(=O)Nc3nn[nH]n3)sc2cc1C [Example B.22, 3-(4-Cyclohexyloxy-phenoxy)-5-methoxy-6-methyl-benzo[b]thiophene-2-carboxylic acid (2H-tetrazol-5-yl)-amide]
2 | 8.10 | COc1cc2c(Oc3ccc(Oc4ccccc4)cc3)c(C(=O)Nc3nn[nH]n3)sc2cc1C [Example B.24, 5-Methoxy-6-methyl-3-(4-phenoxy-phenoxy)-benzo[b]thiophene-2-carboxylic acid (2H-tetrazol-5-yl)-amide]
3 | 7.60 | COc1cc2c(Oc3ccc(CCSC(C)(C)C)cc3)c(C(=O)Nc3nn[nH]n3)sc2cc1C [Example B.25, 3-[4-(2-tert-Butylsulfanyl-ethyl)-phenoxy)-5-methoxy-6-methyl-benzo[b]thiophene-2-carboxylic acid (2H-tetrazol-5-yl)-amide]
4 | 7.17 | COc1cc2c(Oc3ccc(C4(C)CCCCC4)cc3)c(C(=O)Nc3nn[nH]n3)sc2cc1C [Example B.26, 5-Methoxy-6-methyl-3-[4-(1-methyl-cyclohexyl)-phenoxy]-benzo[b]thiophene-2-carboxylic acid (2H-tetrazol-5-yl)-amide]
5 | 6.90 | COc1cc2c(Oc3ccc(C4(C)CCC(C)CC4)cc3)c(C(=O)Nc3nn[nH]n3)sc2cc1C (stereo not drawn) [Example B.27, 3-[4-(1,4-Dimethyl-cyclohexyl)-phenoxy]-5-methoxy-6-methyl-benzo[b]thiophene-2-carboxylic acid (2H-tetrazol-5-yl)-amide]
6 | 7.21 | COc1cc2c(Oc3ccc(C4CCCCC4)cc3C)c(C(=O)Nc3nn[nH]n3)sc2cc1C [Example B.28, 3-(4-Cyclohexyl-2-methyl-phenoxy)-5-methoxy-6-methyl-benzo[b]thiophene-2-carboxylic acid (2H-tetrazol-5-yl)-amide]
7 | 6.56 | COc1cc2c(Oc3ccc(C4CCCCC4)c(C)c3)c(C(=O)Nc3nn[nH]n3)sc2cc1C [Example B.29, 3-(4-Cyclohexyl-3-methyl-phenoxy)-5-methoxy-6-methyl-benzo[b]thiophene-2-carboxylic acid (2H-tetrazol-5-yl)-amide]
8 | 7.54 | COc1cc2c(Oc3ccc(C(C)c4ccccc4)cc3)c(C(=O)Nc3nn[nH]n3)sc2cc1C (stereo not drawn) [Example B.30, 5-Methoxy-6-methyl-3-[4-(1-phenyl-ethyl)-phenoxy]-benzo[b]thiophene-2-carboxylic acid (2H-tetrazol-5-yl)-amide]
9 | 7.06 | COc1cc2c(Oc3ccc(N4CCCCC4)cc3)c(C(=O)Nc3nn[nH]n3)sc2cc1C [Example B.31, 5-Methoxy-6-methyl-3-(4-piperidin-1-yl-phenoxy)-benzo[b]thiophene-2-carboxylic acid (2H-tetrazol-5-yl)-amide]

More lines, now with the values behind:

Row | SMILES | pIC50
10 | COc1cc2c(Oc3ccc(CC(=O)N4CCCCC4)cc3)c(C(=O)Nc3nn[nH]n3)sc2cc1C [Example B.7, 5-Methoxy-6-methyl-3-[4-(2-oxo-2-piperidin-1-yl-ethyl)-phenoxy]-benzo[b]thiophene-2-carboxylic acid (2H-tetrazol-5-yl)-amide] | 7.55
11 | COc1cc2c(Oc3ccc(CCC(=O)N4CCCCC4)cc3)c(C(=O)Nc3nn[nH]n3)sc2cc1C [Example B.8, 5-Methoxy-6-methyl-3-[4-(3-oxo-3-piperidin-1-yl-propyl)-phenoxy]-benzo[b]thiophene-2-carboxylic acid (2H-tetrazol-5-yl)-amide] | 7.48
12 | COc1cc2c(Oc3cccc(C4CCCCC4)c3)c(C(=O)Nc3nn[nH]n3)sc2cc1C [Example B.9, 3-(3-Cyclohexyl-phenoxy)-5-methoxy-6-methyl-benzo[b]thiophene-2-carboxylic acid (2H-tetrazol-5-yl)-amide] | 7.20
13 | COc1cc2c(Oc3ccc(CCBr)cc3)c(C(=O)Nc3nn[nH]n3)sc2cc1C [Example B.10, 3-[4-(2-Bromo-ethyl)-phenoxy]-5-methoxy-6-methyl-benzo[b]thiophene-2-carboxylic acid (2H-tetrazol-5-yl)-amide] | 7.82
14 | COc1cc2c(Oc3ccc4c(c3)CCCC4)c(C(=O)Nc3nn[nH]n3)sc2cc1C [Example B.11, 5-Methoxy-6-methyl-3-(5,6,7,8-tetrahydro-naphthalen-2yloxy)-benzo[b]thiophene-2-carboxylic acid (2H-tetrazol-5-yl)-amide] | 7.07
15 | COc1cc2c(Oc3ccc(C(C)C)cc3)c(C(=O)Nc3nn[nH]n3)sc2cc1C [Example B.12, 3-(4-Isopropyl-phenoxy)-5-methoxy-6-methyl-benzo[b]thiophene-2-carboxylic acid (2H-tetrazol-5-yl)-amide] | 7.77
16 | CCCCc1ccc(Oc2c(C(=O)Nc3nn[nH]n3)sc3cc(C)c(OC)cc23)cc1 [Example B.13, 3-(4-Butyl-phenoxy)-5-methoxy-6-methyl-benzo[b]thiophene-2-carboxylic acid (2H-tetrazol-5-yl)-amide] | 7.51
17 | CCCCCCOc1ccc(Oc2c(C(=O)Nc3nn[nH]n3)sc3cc(C)c(OC)cc23)cc1 [Example B.14, 3-(4-Hexyloxy-phenoxy)-5-methoxy-6-methyl-benzo[b]thiophene-2-carboxylic acid (2H-tetrazol-5-yl)-amide] | 6.44
18 | COc1cc2c(Oc3ccc(OCc4ccccc4)cc3)c(C(=O)Nc3nn[nH]n3)sc2cc1C [Example B.15, 3-(4-Benzyloxy-phenoxy)-5-methoxy-6-methyl-benzo[b]thiophene-2-carboxylic acid (2H-tetrazol-5-yl)-amide] | 7.12
19 | COc1cc2c(Oc3ccc(OCC4CCCCC4)cc3)c(C(=O)Nc3nn[nH]n3)sc2cc1C [Example B.16, 3-(4-Cyclohexylmethoxy-phenoxy)-5-methoxy-6-methyl-benzo[b]thiophene-2-carboxylic acid (2H-tetrazol-5-yl)-amide] | 6.90
20 | COc1cc2c(Oc3ccc(OC4CCCC4)cc3)c(C(=O)Nc3nn[nH]n3)sc2cc1C [Example B.17, 3-(4-Cyclopentyloxy-phenoxy)-5-methoxy-6-methyl-benzo[b]thiophene-2-carboxylic acid (2H-tetrazol-5-yl)-amide] | 8.40
21 | COc1cc2c(Oc3cccc(C(C)(C)C)c3)c(C(=O)Nc3nn[nH]n3)sc2cc1C [Example B.18, 3-(3-tert-Butyl-phenoxy)-5-methoxy-6-methyl-benzo[b]thiophene-2-carboxylic acid (2H-tetrazol-5-yl)-amide] | 7.54
22 | COc1cc2c(Oc3ccc(C(C)(C)C)cc3)c(C(=O)Nc3nn[nH]n3)sc2cc1C [Example B.19, 3-(4-tert-Butyl-phenoxy)-5-methoxy-6-methyl-benzo[b]thiophene-2-carboxylic acid (2H-tetrazol-5-yl)-amide] | 8.05
23 | COc1cc2c(Oc3ccc(-c4ccccc4)cc3)c(C(=O)Nc3nn[nH]n3)sc2cc1C [Example B.20, 3-(Biphenyl-4-yloxy)-5-methoxy-6-methyl-benzo[b]thiophene-2-carboxylic acid (2H-tetrazol-5-yl)-amide] | 7.11
24 | COc1cc2c(Oc3ccc(OC4CCCCCC4)cc3)c(C(=O)Nc3nn[nH]n3)sc2cc1C [Example B.21, 3-(4-Cycloheptyloxy-phenoxy)-5-methoxy-6-methyl-benzo[b]thiophene-2-carboxylic acid (2H-tetrazol-5-yl)-amide] | 7.37
